The text below walks through data of patent US20260232682A1, “GSPT1 DEGRADER COMPOUNDS” (Captor Therapeutics S.A., priority 2023, published 2026).

Assay [1] concerns the target CRBN/DDB1 protein complex (Homo sapiens, UniProt Q96SW2). The experiment in a line: CRBN displacement TR-FRET assay. Conditions: Thalidomide-Red tracer, 6×His-CRBN/DDB1; read-out: CRBN binding Ki. How it is done: CRBN/DDB1 protein complex was mixed with Thalidomide-Red and a compound to be tested (the “test compound”). The test solution contained PPI Europium detection buffer, 1 mM DTT, 6.8 nM Thalidomide-Red (the tracer), 5 nM 6×His-CRBN/DDB1 protein, 0.5 nM Anti-6× His-Eu cryptate, 1% DMSO. The test solution was added to a 384-well assay plate.
The plate was spun-down (1 min, 1000 rpm, 22° C.) and then shaken using a VibroTurbulator for 30 sec at room temperature (20-25° C.), with the frequency set to level 10. The assay plate with protein and the tracer was incubated for 180 min at room temperature (20-25° C.) prior to read-out with a plate reader. The read-out was performed with plate reader (Pherastar, BMG Labtech) in time resolved fluorescence mode. Filter settings: TR 337 665 620.
The CRBN displacement TR-FRET experiment was carried out with various concentrations of the test compounds in order to measure Ki values.
The Ki values of competitive inhibitors were calculated using the equation based on the IC50 values of relationship between compound concentration and measured […], the Kd value of the Thalidomide-Red and CRBN/DDB1 complex, and the concentrations of the protein and the tracer in the displacement assay (as described by Cheng and Prusoff, Biochem Pharmacol 1973; 22:3099-3108).
A general note: In TR-FRET formats the signal depends on donor and acceptor labels being close together.

The target in assay [2] is T1, [GSPT1]-[compound of formula (I)]-[CRBN/DDB1] complex (Homo sapiens, UniProt P15170+Q96SW2). The experiment in a line: AlphaLISA ternary complex formation assay (GSPT1). The assay is classed as binding. The following applies: 0.5 h; 1 μM compound; normalized to reference compound CC-885; read-out: Normalized AlphaLISA ternary complex average signal at 1 μM molecule. How it is done:
The effect of the molecular glue compounds of the invention on the formation of a ternary complex composed of [GSPT1]-[compound of formula (I)]-[CRBN/DDB1] was investigated with two methods: AlphaLISA dose response assay or HTRF ternary complex assay.
Two types of protein solution were prepared: • 200 nM biotinylated GSPT1 (Table 3), 40 μg/ml AlphaScreen Streptavidin-coated Donor Beads in HBS (10 mM HEPES, 150 mM NaCL, pH 7.4) buffer with 0.1% Tween-20 and 1 mM DTT, • 200 nM 6×His-CRBN/DDB1, 40 μg/ml AlphaLISA Anti-6×His Acceptor beads in HBS buffer with 0.1% Tween-20 and 1 mM DTT.
(§1) The prepared solutions were incubated at room temperature for 30 min and then the solution containing the donor beads was mixed with the solution containing the acceptor beads.
(§2) The tested compounds were dispensed onto a white 384-well AlphaPlate 384 SW. DMSO was backfilled to all wells, resulting in a final DMSO content of 2%. Wells containing only DMSO served as background. Next, 10 μl of solution with donor and acceptor beads was added to the wells.
(§3) The plate was sealed with transparent film and shaken using a VibroTurbulator for 60 sec at room temperature, level 3. The plate was then spun down shortly (10 sec, 1000 rcf, room temperature) and incubated at 25° C. for 30 min.
(§4) The read-out was performed with PerkinElmer Enspire Multimode Plate Reader (method for AlphaLISA 384-well low volume, Filterset: λexc=680 nm, λem=615 nm).
The results were analyzed as follows: • 1) an average of luminescence for background signal was calculated and used as a negative control; • 2) average of the maximum measured luminescence for reference compound (structure shown in Table 3 below) was calculated and used as an internal positive control; • 3) raw luminescence values were normalized against positive and negative controls; • 4) Normalized responses to positive control were determined.
(In general: Alpha assays give light when donor and acceptor beads are brought close together.)

Assay [3] deals with T1, [GSPT1]-[compound of formula (I)]-[CRBN/DDB1] complex. Nature of the assay: HTRF ternary complex assay (GSPT1). The assay is classed as binding. The following applies: read-out: HTRF ternary complex Average pEC50 by molecule (converted). The method, then: The effect of the molecular glue compounds of the invention on the formation of a ternary complex composed of [GSPT1]-[compound of formula (I)]-[CRBN/DDB1] was investigated.
Mix solution of proteins and reagents was prepared: • 48 nM GSPT1, 52.8 nM 6×His-CRBN/DDB1, 3 nM of Streptavidin-Eu cryptate ([…]) and 6.67 nM of Anti-6×his-d2 ([…]) was prepared in PPI Europium detection buffer (purchased from Cisbio) with 1 mM DTT.
The tested compounds in dose-response were dispensed onto a white 384-well low volume plate (Greiner, 784075). DMSO was backfilled to all wells, resulting in a final DMSO content of 0.5%. Wells containing only DMSO served as background.
The plate was sealed with transparent film and shaken using a VibroTurbulator for 60 sec at level 3.
The plate was then spun down shortly (10 sec, 1000 rcf) and incubated at 25° C. for 180 min.
The read-out was performed with plate reader (Pherastar, BMG Labtech) in time resolved fluorescence mode. Filter settings: TR 337 665 620.
The results were analyzed as follows: • 1) an average of fluorescence for background signal was calculated and used as a negative control; • 2) raw fluorescence values for tested compounds were normalized against negative controls; • 3) saturation curve was fitted to specific binding with Hill slope model; • 4) EC50 and pEC50 values were determined.

The target in assay [4] is T2, [SALL4 ZF2]-[compound]-[CRBN/DDB1] ternary complex (Homo sapiens, UniProt Q96SW2+Q9UJQ4).
T2 construct: SALL4 ZF2
T2 sequence (Q9UJQ4 410-432 limits assumed): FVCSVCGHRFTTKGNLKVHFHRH
T2 sequence (Q96SW2 whole entry): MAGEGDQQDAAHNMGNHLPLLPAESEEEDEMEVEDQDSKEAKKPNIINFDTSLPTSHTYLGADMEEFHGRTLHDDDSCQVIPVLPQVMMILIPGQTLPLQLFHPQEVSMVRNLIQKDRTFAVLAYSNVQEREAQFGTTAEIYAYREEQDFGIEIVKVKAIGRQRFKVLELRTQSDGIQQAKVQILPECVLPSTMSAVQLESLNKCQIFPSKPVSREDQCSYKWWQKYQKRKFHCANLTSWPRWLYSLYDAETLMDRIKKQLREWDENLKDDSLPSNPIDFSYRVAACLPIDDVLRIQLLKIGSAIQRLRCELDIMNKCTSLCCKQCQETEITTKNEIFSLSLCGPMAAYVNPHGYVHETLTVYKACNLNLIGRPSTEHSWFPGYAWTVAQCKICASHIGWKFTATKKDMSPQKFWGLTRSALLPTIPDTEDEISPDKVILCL
T2 sequence (Q16531 whole entry partner): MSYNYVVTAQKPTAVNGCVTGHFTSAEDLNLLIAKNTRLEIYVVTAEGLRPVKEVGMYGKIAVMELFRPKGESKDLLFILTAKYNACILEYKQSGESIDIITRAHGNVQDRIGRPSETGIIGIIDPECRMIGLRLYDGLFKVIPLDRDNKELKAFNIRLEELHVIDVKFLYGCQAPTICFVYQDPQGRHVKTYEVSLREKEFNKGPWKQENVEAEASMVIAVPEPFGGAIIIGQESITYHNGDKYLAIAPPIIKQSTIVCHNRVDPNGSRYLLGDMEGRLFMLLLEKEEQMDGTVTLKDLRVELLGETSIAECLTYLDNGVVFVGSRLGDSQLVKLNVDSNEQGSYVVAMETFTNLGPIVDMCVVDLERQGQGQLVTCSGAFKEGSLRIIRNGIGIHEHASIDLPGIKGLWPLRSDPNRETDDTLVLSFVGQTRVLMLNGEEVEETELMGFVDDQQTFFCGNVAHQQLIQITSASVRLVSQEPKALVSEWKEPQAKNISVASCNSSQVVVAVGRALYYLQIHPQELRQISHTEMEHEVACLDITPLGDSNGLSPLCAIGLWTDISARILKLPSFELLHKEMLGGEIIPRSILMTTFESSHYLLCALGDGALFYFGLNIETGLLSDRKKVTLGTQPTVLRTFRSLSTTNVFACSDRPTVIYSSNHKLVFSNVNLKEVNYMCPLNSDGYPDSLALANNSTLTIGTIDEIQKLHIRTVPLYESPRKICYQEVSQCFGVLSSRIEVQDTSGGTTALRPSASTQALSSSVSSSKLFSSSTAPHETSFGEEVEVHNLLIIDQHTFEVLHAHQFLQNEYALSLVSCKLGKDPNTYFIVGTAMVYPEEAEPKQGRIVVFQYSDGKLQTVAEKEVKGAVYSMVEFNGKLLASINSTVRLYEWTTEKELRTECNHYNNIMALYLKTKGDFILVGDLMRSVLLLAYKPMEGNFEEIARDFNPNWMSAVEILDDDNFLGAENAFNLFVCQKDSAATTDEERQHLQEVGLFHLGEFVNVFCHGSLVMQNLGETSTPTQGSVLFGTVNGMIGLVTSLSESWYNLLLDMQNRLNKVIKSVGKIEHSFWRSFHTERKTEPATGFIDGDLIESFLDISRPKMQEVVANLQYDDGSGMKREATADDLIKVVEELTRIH
The experiment in a line: AlphaLISA assay for off-target recruitment detection, SALL4 ZF2. Conditions: 1 μM compound; normalized to Lenalidomide; read-out: Normalized ternary complex response, SALL4 ZF2. The assay is classed as binding. The method, then: (§5) The ability of the molecular glue compounds of the invention to mediate the proximity of CRBN with its known neo-substrates (shown in Table 3) was assessed using AlphaLISA to detect the formation of a [neo-substrate]-[compound of formula (I)]-[CRBN/DDB1] ternary complex.
(§6) Two types of protein solution were prepared: • neo-substrate, 40 μg/ml AlphaScreen Donor Beads (Table 3) in PBS (10 mM phosphate buffer, 137 mM NaCL, 2.7 mM KCl, pH 7.4) buffer supplemented with Tween-20 (Table 3) and 1 mM DTT, • 200 nM 6×His-CRBN/DDB1, 40 μg/ml AlphaLISA Anti-6×His Acceptor beads in PBS buffer with Tween-20 (Table 3) and 1 mM DTT.
as §1, §2, §3, §4
(§7) The results were analyzed as follows: • 1) an average of luminescence for background signal was calculated and used as a negative control; • 2) an average of the maximum measured luminescence for reference compound (Table 3) was calculated and used as an internal positive control; • 3) raw luminescence values were normalized against positive and negative controls; • 4) Normalized responses to reference molecular glue were determined.

Assay [5] addresses T3, [IKZF1 ZF2]-[compound]-[CRBN/DDB1] ternary complex (Homo sapiens, UniProt Q13422+Q96SW2).
T3 construct: IKZF1 ZF2
The experiment in a line: AlphaLISA assay for off-target recruitment detection, IKZF1 ZF2. The assay is classed as binding. Conditions: 1 μM compound; normalized to Lenalidomide; read-out: Normalized ternary complex response, IKZF1 ZF2. How it is done: as §5, §6, §1, §2, §3, §4, §7

Assay [6] concerns the target T4, [IKZF2 ZF2]-[compound]-[CRBN/DDB1] ternary complex (Homo sapiens, UniProt Q96SW2+Q9UKS7).
T4 construct: IKZF2 ZF2
The experiment in a line: AlphaLISA assay for off-target recruitment detection, IKZF2 ZF2. Conditions: 1 μM compound; normalized to Helios modulator; read-out: Normalized ternary complex response, IKZF2 ZF2. It is filed as binding. The method, then: as §5, §6, §1, §2, §3, §4, §7

Assay [7] concerns the target [CK1α]-[compound]-[CRBN/DDB1] ternary complex (Homo sapiens, UniProt P48729+Q96SW2). The experiment in a line: AlphaLISA assay for off-target recruitment detection, CK1α. It is filed as binding. The following applies: 1 μM compound; normalized to FPFT-2216; read-out: Normalized ternary complex response, CK1α. How it is done: as §5, §6, §1, §2, §3, §4, §7

A word on the Ki: it is the equilibrium dissociation constant of an inhibitor or competing ligand from its target.

T3 sequence (Q13422 145-167 limits assumed): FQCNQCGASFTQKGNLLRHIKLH
T3 sequence (Q96SW2 whole entry): as the sequence (Q96SW2 whole entry) above
T3 sequence (Q16531 whole entry partner): as the sequence (Q16531 whole entry partner) above
Sequence of [CK1α]-[compound]-[CRBN/DDB1] ternary complex (P48729 whole entry): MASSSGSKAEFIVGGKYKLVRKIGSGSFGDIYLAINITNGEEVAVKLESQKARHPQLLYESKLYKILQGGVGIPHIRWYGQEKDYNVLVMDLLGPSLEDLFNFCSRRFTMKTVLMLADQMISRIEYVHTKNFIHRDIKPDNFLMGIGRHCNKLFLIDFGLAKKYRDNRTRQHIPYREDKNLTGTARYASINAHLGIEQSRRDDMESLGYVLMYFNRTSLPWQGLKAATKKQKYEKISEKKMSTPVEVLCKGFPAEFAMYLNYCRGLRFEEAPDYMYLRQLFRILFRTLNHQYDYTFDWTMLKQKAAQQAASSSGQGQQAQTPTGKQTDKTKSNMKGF
Sequence of [CK1α]-[compound]-[CRBN/DDB1] ternary complex (Q96SW2 whole entry): as the sequence (Q96SW2 whole entry) above
Sequence of [CK1α]-[compound]-[CRBN/DDB1] ternary complex (Q16531 whole entry partner): as the sequence (Q16531 whole entry partner) above
T4 sequence (Q9UKS7 140-162 limits assumed): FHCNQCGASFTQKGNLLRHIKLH
T4 sequence (Q96SW2 whole entry): as the sequence (Q96SW2 whole entry) above
T4 sequence (Q16531 whole entry partner): as the sequence (Q16531 whole entry partner) above
T1 sequence (P15170 whole entry): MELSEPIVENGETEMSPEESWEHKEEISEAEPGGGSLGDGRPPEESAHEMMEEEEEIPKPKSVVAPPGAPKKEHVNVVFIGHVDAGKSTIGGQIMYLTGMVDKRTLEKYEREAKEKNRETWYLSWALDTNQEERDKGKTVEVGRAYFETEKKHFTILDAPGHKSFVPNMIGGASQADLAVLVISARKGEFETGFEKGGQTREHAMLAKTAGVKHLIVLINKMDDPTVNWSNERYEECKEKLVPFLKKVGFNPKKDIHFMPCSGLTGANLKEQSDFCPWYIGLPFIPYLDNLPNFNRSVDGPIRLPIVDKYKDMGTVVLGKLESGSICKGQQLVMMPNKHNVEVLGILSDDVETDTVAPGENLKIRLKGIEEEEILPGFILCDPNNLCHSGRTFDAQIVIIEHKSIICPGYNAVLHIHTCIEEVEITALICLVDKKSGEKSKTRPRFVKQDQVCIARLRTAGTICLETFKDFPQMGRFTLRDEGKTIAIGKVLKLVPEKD
T1 sequence (Q96SW2 whole entry): as the sequence (Q96SW2 whole entry) above
T1 sequence (Q16531 whole entry partner): as the sequence (Q16531 whole entry partner) above
Sequence of CRBN/DDB1 protein complex (Q96SW2 whole entry, species assumed): as the sequence (Q96SW2 whole entry) above
Sequence of CRBN/DDB1 protein complex (Q16531 whole entry partner, species assumed): as the sequence (Q16531 whole entry partner) above

As for `Cc1ccc(NCC(=O)NCc2ccc3nc(C)c(C4CCC(=O)NC4=O)cc3c2)cc1Cl` (stereo not drawn) [Compound 26, 2-((3-chloro-4-methylphenyl)amino)-N-((3-(2,6-dioxopiperidin-3-yl)-2-methylquinolin-6-yl)methyl)acetamide], in assay [1], the Ki lay within 500 to 1000 nM. For the same molecule, the activation at 1 µM in assay [2] is 10 to 50%; in assay [4], 25 to 50%; in assay [5] it was less than 10%; in assay [6], less than 10%; in assay [7], less than 10%. Moreover, the EC50 in assay [3] is 316 to 3160 nM.

Turning to `Cc1nc2cc(COC(=O)NC3CCN(c4ccccc4)CC3)ccc2cc1C1CCC(=O)NC1=O` (stereo not drawn) [Compound 47, (3-(2,6-dioxopiperidin-3-yl)-2-methylquinolin-7-yl)methyl (1-phenylpiperidin-4-yl)carbamate], in assay [1], the Ki was less than 500 nM. The activation at 1 µM was 10 to 50% in assay [2]; less than 10% in assay [4]; less than 10% in assay [5]; less than 10% in assay [6]; less than 10% in assay [7]. The EC50 in assay [3] was more than 3160 nM.

Take `Cc1nc2cc(OC(C)C(=O)NC3CCCCC3)ccc2cc1C1CCC(=O)NC1=O` (stereo not drawn) [Compound 36, N-cyclohexyl-2-((3-(2,6-dioxopiperidin-3-yl)-2-methylquinolin-7-yl)oxy)propenamide]: in assay [1], the inhibitory constant (Ki) is less than 500 nM. Moreover, the activation at 1 µM in assay [2], in assay [4], in assay [5], in assay [6] and in assay [7] was less than 10% in each case. Also, the EC50 in assay [3] was more than 3160 nM.

Turning to `Cc1nc2ccc(CNC(=O)C(=O)N3CCC(C(C)(C)C)CC3)cc2cc1C1CCC(=O)NC1=O` (stereo not drawn) [Compound 23, 2-(4-(tert-butyl)piperidin-1-yl)-N-((3-(2,6-dioxopiperidin-3-yl)-2-methylquinolin-6-yl)methyl)-2-oxoacetamide], the inhibition constant Ki in assay [1] is less than 500 nM. Besides, the activation at 1 µM is 10 to 50% in assay [2]; 25 to 50% in assay [4]; less than 10% in assay [5]; less than 10% in assay [6]; less than 10% in assay [7]. Further, the EC50 in assay [3] is more than 3160 nM.

In the case of `Cc1ccc(Nc2c(NCc3ccc4cc(C5CCC(=O)NC5=O)c(C)nc4c3)c(=O)c2=O)cc1Cl` (stereo not drawn) [Compound 3, 3-(7-(((2-((3-chloro-4-methylphenyl)amino)-3,4-dioxocyclobut-1-en-1-yl)amino)methyl)-2-methylquinolin-3-yl)piperidine-2,6-dione], in assay [1], the Ki was more than 1000 nM. Besides, the activation at 1 µM in assay [2] is 10 to 50%; in assay [4], less than 10%; in assay [5], less than 10%; in assay [6], less than 10%; in assay [7] it was less than 10%. Also, the EC50 in assay [3] was more than 3160 nM.

As to `Cc1nc2ccc(CNC(=O)C(=O)c3ccc(C(C)(C)C)cc3)cc2cc1C1CCC(=O)NC1=O` (stereo not drawn) [Compound 1, 2-(4-(tert-butyl)phenyl)-N-((3-(2,6-dioxopiperidin-3-yl)-2-methylquinolin-6-yl)methyl)-2-oxoacetamide], in assay [1], the Ki is less than 500 nM. The activation at 1 µM in assay [2] is more than 50%; in assay [4], not below 50%; in assay [5], 25 to 50%; in assay [6], 10 to 25%; in assay [7], less than 10%. The EC50 in assay [3] was less than 316 nM.

`Cc1nc2ccc(COC(=O)Nc3cc(OC(F)(F)F)ccc3F)cc2cc1C1CCC(=O)NC1=O` (stereo not drawn) [Compound 7, (3-(2,6-dioxopiperidin-3-yl)-2-methylquinolin-6-yl)methyl (2-fluoro-5-(trifluoromethoxy)phenyl)carbamate]: the Ki in assay [1] is less than 500 nM. The activation at 1 µM in assay [2] is 10 to 50%; in assay [4] it was not below 50%; in assay [5] it was 25 to 50%; in assay [6], less than 10%; in assay [7], less than 10%. In assay [3], the EC50 was more than 3160 nM.

With `Cc1nc2ccc(CNC(=O)NC3CCCCC3)cc2cc1N1CCC(=O)NC1=O` [Compound 52, 1-cyclohexyl-3-((3-(2,4-dioxotetrahydropyrimidin-1(2H)-yl)-2-methylquinolin-6-yl)methyl)urea], the Ki in assay [1] is more than 1000 nM. The activation at 1 µM in assay [2] is 10 to 50%; in assay [4], not below 50%; in assay [5], 25 to 50%; in assay [6] it was 10 to 25%; in assay [7] it was less than 10%. Besides, the EC50 in assay [3] was 316 to 3160 nM.

In the case of `Cc1ccc(NC(=O)C(C)Oc2ccc3cc(C4CCC(=O)NC4=O)c(C)nc3c2)cc1Cl` (stereo not drawn) [Compound 34, N-(3-chloro-4-methylphenyl)-2-((3-(2,6-dioxopiperidin-3-yl)-2-methylquinolin-7-yl)oxy)propenamide], the Ki in assay [1] lay within 500 to 1000 nM. For the same molecule, the activation at 1 µM in assay [2], in assay [4], in assay [5], in assay [6] and in assay [7] was less than 10% throughout. The EC50 in assay [3] is more than 3160 nM.
